The text below walks through data of ChEMBL document CHEMBL4390659, “Molecular hybridization approach for phenothiazine incorporated 1,2,3-triazole hybrids as promising antimicrobial agents: Design, synthesis, molecular docking and in silico ADME studies” (Eur J Med Chem, 2019).

Structures are written as SMILES. In brackets after ≈: the same amount, converted by molar mass.

Data set [1] has as its system Mycobacterium tuberculosis. Kind of data set: Potency index, ratio of ciprofloxacin MIC to test compound MIC against Mycobacterium tuberculosis H37Rv ATCC 27294. In kind it is functional.
The test system of a further data set is Vero. Description: Cytotoxicity against African green monkey Vero cells assessed as reduction in cell viability incubated for 72 hrs by MTT assay. In kind it is cell-based. As to conditions: Chlorocebus sabaeus. (Tetrazolium dyes change colour on reduction, which living cells bring about.)
Another data set deals with Staphylococcus aureus. Description: Antibacterial activity against Staphylococcus aureus incubated for 24 hrs by agar dilution method. In kind it is functional. On the technique in general: In agar dilution, organisms are placed on agar that contains the substance at set levels.
Data set [2] relates to Mycobacterium tuberculosis. Kind of data set: Potency index, ratio of streptomycin MIC to test compound MIC against Mycobacterium tuberculosis H37Rv ATCC 27294. In kind it is functional.
In data set [3] the test system is Mycobacterium tuberculosis. Description: Antibacterial activity against Mycobacterium tuberculosis H37Rv ATCC 27294 assessed as reduction in mycobacterial growth incubated for 5 days by MABA method. In kind it is functional. As to conditions: H37Rv ATCC 27294, 120 h. On the technique in general: Resazurin is reduced to fluorescent resorufin, in cell work by metabolically active cells.

Data set [4] deals with Mycobacterium tuberculosis. Kind of data set: Potency index, ratio of pyrazinamide MIC to test compound MIC against Mycobacterium tuberculosis H37Rv ATCC 27294. In kind it is functional.
The test system of another data set is Pseudomonas aeruginosa. Description: Antibacterial activity against Pseudomonas aeruginosa incubated for 24 hrs by agar dilution method. In kind it is functional.
Another data set concerns Escherichia coli. Description: Antibacterial activity against Escherichia coli incubated for 24 hrs by agar dilution method. In kind it is functional.
Data set [5] can be described thus: Selectivity index, ratio of IC50 for African green monkey Vero cells to MIC for Mycobacterium tuberculosis H37Rv ATCC 27294. In kind it is toxicity. As to conditions: read-out: Selectivity Index.
A short description of data set [6]: Cytotoxicity against African green monkey Vero cells assessed as cell growth inhibition at 6.25 ug/ml incubated for 72 hrs by MTT assay relative to control. In kind it is cell-based. As to conditions: chlorocebus sabaeus, read-out: GI.
Data set [7] has as its system Mycobacterium tuberculosis. Description: Antibacterial activity against Mycobacterium tuberculosis H37Rv infected in Swiss albino mouse assessed as log reduction in bacterial burden in lungs at 26 mg/kg, po administered via gavage starting from 6 weeks post infection measured after 3 to 4 weeks co-treated with isoniazid. In kind it is functional.
Data set [8] relates to Mycobacterium tuberculosis. Kind of data set: Antibacterial activity against Mycobacterium tuberculosis H37Rv infected in Swiss albino mouse assessed as log reduction in bacterial burden in spleen at 26 mg/kg, po administered via gavage starting from 6 weeks post infection measured after 3 to 4 weeks co-treated with rifampicin. In kind it is functional.
The test system of data set [9] is Mycobacterium tuberculosis. Description: Antibacterial activity against Mycobacterium tuberculosis H37Rv infected in Swiss albino mouse assessed as log reduction in bacterial burden in lungs at 26 mg/kg, po administered via gavage starting from 6 weeks post infection measured after 3 to 4 weeks co-treated with rifampicin. In kind it is functional.
The subject of data set [10] is Mycobacterium tuberculosis. Kind of data set: Antibacterial activity against Mycobacterium tuberculosis H37Rv infected in Swiss albino mouse assessed as log reduction in bacterial burden in spleen at 26 mg/kg, po administered via gavage starting from 6 weeks post infection measured after 3 to 4 weeks co-treated with isoniazid. In kind it is functional.

`N#Cc1ccc(Cn2cc(CN3c4ccccc4Sc4cc(/C=N/NC(=O)c5ccc(F)cc5)ccc43)nn2)cc1`: the Ratio in data set [1] came out at 4; in data set [2], 4; in [4], 2. Besides, the 50% inhibitory concentration (IC50) in the data set on Vero is 758 µg/mL (≈ 1350 µM). Further, the MIC in the data set on Staphylococcus aureus was 6.25 µg/mL (≈ 11.2 µM); in data set [3], 2.85 µM (≈ 1.59 µg/mL); against Pseudomonas aeruginosa, 12.5 µg/mL (≈ 22.3 µM); with Escherichia coli, 12.5 µg/mL (≈ 22.3 µM). The selectivity ratio in [5] stood at 66.3. Besides, the inhibition at 72 h, 6.25 ug/ml in data set [6] was found to be 11.4%.
Take `N#Cc1ccc(Cn2cc(CN3c4ccccc4Sc4cc(/C=N/NC(=O)c5cnccn5)ccc43)nn2)cc1`: the results for the Ratio in [1], in data set [2] and in [4] were 4, 4 and 2, respectively. Also, in the data set with Vero, the IC50 was 2400 µg/mL (≈ 4420 µM). Further, the MIC in the data set on Staphylococcus aureus came to 50 µg/mL (≈ 92 µM); in data set [3], 2.94 µM (≈ 1.6 µg/mL); in the data set with Pseudomonas aeruginosa, 100 µg/mL (≈ 184 µM); in the data set with Escherichia coli it was 50 µg/mL (≈ 92 µM). In addition, the selectivity ratio in data set [5] was found to be 195. The inhibition at 72 h, 6.25 ug/ml in data set [6] is 12.3%.
With `N#Cc1ccc(Cn2cc(CN3c4ccccc4Sc4cc(/C=N/NC(=O)c5ccc([N+](=O)[O-])cc5)ccc43)nn2)cc1`, the Ratio in data set [1] is given as 4; in data set [2], 4; in data set [4] it was 2. Moreover, the 50% inhibitory concentration (IC50) with Vero was determined as 693 µg/mL (≈ 1180 µM). Also, the MIC in the data set on Staphylococcus aureus stood at 25 µg/mL (≈ 42.6 µM); in [3] it was 2.72 µM (≈ 1.6 µg/mL); in the data set with Pseudomonas aeruginosa it was 50 µg/mL (≈ 85.2 µM); against Escherichia coli, 50 µg/mL (≈ 85.2 µM). Besides, in data set [5], the selectivity ratio turned out to be 91.5. In addition, the inhibition at 72 h, 6.25 ug/ml in data set [6] is 7.57%.
For `N#Cc1ccc(Cn2cc(CN3c4ccc(/C=N/NC(=O)c5ccc([N+](=O)[O-])cc5)cc4Sc4ccc(C(F)(F)F)cc43)nn2)cc1`, the values for the Ratio in [1], in data set [2] and in data set [4] were 4, 4 and 2, respectively. Moreover, the IC50 in the data set on Vero was 1130 µg/mL (≈ 1720 µM). Besides, the MIC in the data set on Staphylococcus aureus came out at 25 µg/mL (≈ 38.2 µM); in [3], 2.44 µM (≈ 1.6 µg/mL); with Pseudomonas aeruginosa it was 50 µg/mL (≈ 76.4 µM); in the data set with Escherichia coli, 50 µg/mL (≈ 76.4 µM). The selectivity ratio in [5] came to 126. In addition, the inhibition at 72 h, 6.25 ug/ml in [6] is 8.91%.
Take `N#Cc1ccc(Cn2cc(CN3c4ccc(/C=N/NC(=O)c5ccncc5)cc4Sc4ccc(C(F)(F)F)cc43)nn2)cc1`: the Ratio is reported as 4 in data set [1], 4 in data set [2] and 2 in data set [4]. For the same compound, the IC50 with Vero stood at 1480 µg/mL (≈ 2420 µM). Also, the MIC with Staphylococcus aureus was 50 µg/mL (≈ 81.9 µM); in data set [3], 2.62 µM (≈ 1.6 µg/mL); against Pseudomonas aeruginosa, 100 µg/mL (≈ 164 µM); against Escherichia coli, 50 µg/mL (≈ 81.9 µM). The selectivity ratio in data set [5] stood at 207. Besides, the inhibition at 72 h, 6.25 ug/ml in data set [6] was 7.14%.
With `N#Cc1ccc(Cn2cc(CN3c4ccc(/C=N/NC(=O)c5cnccn5)cc4Sc4ccc(C(F)(F)F)cc43)nn2)cc1`, the Ratio is on record as 4 in data set [1], 4 in data set [2] and 2 in data set [4]. Besides, the IC50 in the data set with Vero is 2110 µg/mL (≈ 3450 µM). Besides, the MIC against Staphylococcus aureus is 50 µg/mL (≈ 81.8 µM); in data set [3], 2.61 µM (≈ 1.6 µg/mL); against Pseudomonas aeruginosa, 100 µg/mL (≈ 164 µM); in the data set on Escherichia coli it was 50 µg/mL (≈ 81.8 µM). In addition, the selectivity ratio in [5] worked out at 183. The inhibition at 72 h, 6.25 ug/ml in data set [6] came out at 11.6%.
In the case of `N#Cc1ccc(Cn2cc(CN3c4ccccc4Sc4cc(/C=N/NC(=O)c5ccncc5)ccc43)nn2)cc1`, the Ratio in [1] is reported as 4; in [2] it was 4; in [4], 2. In addition, the IC50 in the data set with Vero stood at 1300 µg/mL (≈ 2390 µM). In addition, the MIC in the data set with Staphylococcus aureus stood at 12.5 µg/mL (≈ 23 µM); in data set [3], 2.94 µM (≈ 1.6 µg/mL); in the data set with Pseudomonas aeruginosa, 25 µg/mL (≈ 46.1 µM); against Escherichia coli, 25 µg/mL (≈ 46.1 µM). Besides, the selectivity ratio in data set [5] turned out to be 253. In addition, in data set [6], the inhibition at 72 h, 6.25 ug/ml amounted to 5.13%.
`N#Cc1ccc(Cn2cc(CN3c4ccccc4Sc4cc(/C=N/NC(=O)c5ccccc5)ccc43)nn2)cc1`: the figures for the Ratio in [1], in data set [2] and in data set [4] were 4, 4 and 2, respectively. Besides, the IC50 with Vero amounted to 434 µg/mL (≈ 802 µM). Also, the MIC with Staphylococcus aureus was found to be 12.5 µg/mL (≈ 23.1 µM); in data set [3], 2.95 µM (≈ 1.6 µg/mL); in the data set with Pseudomonas aeruginosa it was 25 µg/mL (≈ 46.2 µM); against Escherichia coli, 25 µg/mL (≈ 46.2 µM). Also, in [5], the selectivity ratio amounted to 32.3. Besides, the inhibition at 72 h, 6.25 ug/ml in data set [6] is 13.4%.
With `N#Cc1ccc(Cn2cc(CN3c4ccc(/C=N/NC(=O)c5cccnc5)cc4Sc4ccc(C(F)(F)F)cc43)nn2)cc1`, the Ratio stood at 4 in [1], 4 in data set [2] and 2 in data set [4]. In addition, in the data set with Vero, the IC50 is 845 µg/mL (≈ 1380 µM). Moreover, the minimal inhibitory concentration (MIC) came to 50 µg/mL (≈ 81.9 µM) with Staphylococcus aureus, 2.62 µM (≈ 1.6 µg/mL) in [3], 100 µg/mL (≈ 164 µM) with Pseudomonas aeruginosa and 100 µg/mL (≈ 164 µM) against Escherichia coli. The selectivity ratio in data set [5] came out at 115. In addition, the inhibition at 72 h, 6.25 ug/ml in data set [6] amounted to 7.32%.
For the compound `CSc1ccc2c(c1)N(CCC1CCCCN1C)c1ccccc1S2` (centres undefined) [THIORIDAZINE], the Activity in data set [7], in data set [8], in data set [9] and in data set [10] was above 1 log10CFU throughout.

The IC50 is the concentration that inhibits the measured activity by half. A word on the MIC: it is the smallest concentration in the dilution series that meets the test's criterion for growth inhibition.
